The results in this text go back to US20240325371A1, “USE OF EZH2 INHIBITOR IN PREPARATION OF DRUG FOR TREATING T-CELL LYMPHOMA” (JIANGSU HENGRUI MEDICINE CO., LTD., priority 2021, published 2024).

The subject of the assay is relapsed or refractory PTCL. The assay can be described thus: Efficacy study of compound shown in Formula (I) in peripheral T-cell lymphoma patients. The assay is classed as in vivo, human. The method, then:
ORR: Defined as the proportion of subjects with best efficacy of CR or PR from the start of the first dose to the occurrence of PD or the start of subsequent new anti-tumor treatment, whichever occurs first. • 1.1 Drugs: Compound (WO2017084494A) shown in Formula (1), strength: 50 mg/tablet, 200 mg/tablet. • 1.2 Methods of administration: 350 mg, twice a day, 28 days as a cycle. • 1.3 Inclusion criteria: Relapsed or refractory T lymphocytic lymphoma. A total of 24 patients with relapsed or refractory PTCL were enrolled in the 350 mg group, of whom 16 received chidamide, and all patients were analyzed for efficacy data based on indistinguishable prior treatment and prior chidamide treatment.

SMILES strings stand for the structures.

Consider `CCc1c(N(CC)C2CCOCC2)cc2oc(CN3CCCCC3)cc2c1C(=O)NCc1c(C)cc(C)[nH]c1=O` [Formula (I)], for which the ORR is, setting by setting: (350 mg group having used chidamide, ES, AITL (n = 8)) 62.5%; (350 mg group having used chidamide, ES, ALL (n = 14)) 64.3%; (350 mg group having used chidamide, ES, PTCL-NOS (n = 6)) 66.7%; (350 mg group having used chidamide, FAS, AITL (n = 10)) 50.0%; (350 mg group having used chidamide, FAS, ALL (n = 16)) 56.3%; (350 mg group having used chidamide, FAS, PTCL-NOS (n = 6)) 66.7%. In addition, the ORR runs as follows: (350 mg twice a day, ES, AITL (n = 11)) 72.7%; (350 mg twice a day, ES, ALL (n = 18)) 66.7%; (350 mg twice a day, ES, PTCL-NOS (n = 7)) 57.1%; (350 mg twice a day, FAS, AITL (n = 15)) 53.3%; (350 mg twice a day, FAS, ALL (n = 24)) 50%; (350 mg twice a day, FAS, PTCL-NOS (n = 9)) 44.4%.
